The source of these data is patent publication US7858621B2 (Amorepacific Corporation, priority 2006, dated 2010).

Each structure is given as a SMILES string.

In the experiment the target is T1, vanilloid receptor (Rattus norvegicus, UniProt O35433).
T1 construct: DRG nerve cells from the primary culture of 2 days were equilibrated; endogenous in cells; host or cells: primary culture of dorsal root ganglion neurons from neonatal SD rats
T1 sequence (O35433 whole entry): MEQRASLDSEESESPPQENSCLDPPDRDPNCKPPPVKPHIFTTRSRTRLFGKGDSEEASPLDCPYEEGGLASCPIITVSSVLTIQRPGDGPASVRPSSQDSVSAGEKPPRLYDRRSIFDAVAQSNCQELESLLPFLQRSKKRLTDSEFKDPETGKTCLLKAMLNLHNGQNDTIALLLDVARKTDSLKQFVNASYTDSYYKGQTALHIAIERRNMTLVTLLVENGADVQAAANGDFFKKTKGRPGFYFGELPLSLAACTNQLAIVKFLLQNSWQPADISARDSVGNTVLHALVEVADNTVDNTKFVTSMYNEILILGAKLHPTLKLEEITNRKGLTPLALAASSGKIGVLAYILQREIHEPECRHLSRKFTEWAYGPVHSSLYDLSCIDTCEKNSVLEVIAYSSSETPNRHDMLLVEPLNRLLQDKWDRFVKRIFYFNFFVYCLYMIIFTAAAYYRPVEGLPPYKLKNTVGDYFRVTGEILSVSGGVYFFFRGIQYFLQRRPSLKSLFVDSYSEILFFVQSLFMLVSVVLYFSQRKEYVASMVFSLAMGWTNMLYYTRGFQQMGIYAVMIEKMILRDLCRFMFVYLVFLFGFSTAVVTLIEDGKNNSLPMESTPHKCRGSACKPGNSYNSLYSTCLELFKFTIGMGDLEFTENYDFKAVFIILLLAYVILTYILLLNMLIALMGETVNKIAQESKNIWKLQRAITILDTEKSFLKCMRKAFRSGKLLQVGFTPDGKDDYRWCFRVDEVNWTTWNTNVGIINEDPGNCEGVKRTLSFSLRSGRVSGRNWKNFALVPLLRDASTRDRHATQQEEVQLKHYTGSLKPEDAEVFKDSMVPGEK
Put plainly: 45Ca influx test in cultured neonatal rat DRG neurons, inhibition of capsaicin response. It counts as cell-based. The settings on record: neonatal rat DRG neurons, capsaicin 0.5 μM, 45Ca influx; read-out: Antagonist Calcium Uptake Test (IC50). The method, boiled down: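 Neonatal SD rat DRG neurons, cultured 2 days with NGF (200 ng/ml) and Ara-C, were washed in HEPES (10 mM, pH 7.4)-buffered Ca/Mg-free HBSS. Test compound was added with capsaicin (final 0.5 μM) and 45Ca (10 μCi/ml) for 10 min at room temperature; 45Ca uptake counted by scintillation after SDS elution.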
A word on the IC50: it is the concentration that inhibits the measured activity by half. For `CCC(C)Nc1nc(C(F)(F)F)ccc1/C=C/C(=O)NCc1ccc(NS(C)(=O)=O)c(F)c1` (stereo not shown) [Example 123, 3-(2-sec-Butylamino-6-trifluoromethyl-pyridin-3-yl)-N-(3-fluoro-4-methanesulfonylamino-benzyl)-acrylamide], the IC50 was found to be 93 nM.

As for `CCC(C)Nc1nc(C(F)(F)F)ccc1/C=C/C(=O)NCc1cc(F)c(NS(C)(=O)=O)c(C#N)c1` (stereo not shown) [Example 124, 3-(2-sec-Butylamino-6-trifluoromethyl-pyridin-3-yl)-N-(3-cyano-5-fluoro-4-methanesulfonylamino-benzyl)-acrylamide], the IC50 came to 88 nM.

Consider `C#Cc1cc(CNC(=O)/C=C/c2ccc(C(F)(F)F)nc2-c2cccc(OC)c2)cc(F)c1NS(C)(=O)=O` [Example 125, N-(3-Ethynyl-5-fluoro-4-methanesulfonylamino-benzyl)-3-[2-(3-methoxy-phenyl)-6-trifluoromethyl-pyridin-3-yl]-acrylamide], for which the IC50 is above 1000 nM.

`C#Cc1cc(CNC(=O)/C=C/c2ccc(C(F)(F)F)nc2-c2cccnc2)cc(F)c1NS(C)(=O)=O` [Example 126, N-(3-Ethynyl-5-fluoro-4-methanesulfonylamino-benzyl)-3-(2-pyridin-3-yl-6-trifluoromethyl-pyridin-3-yl)-acrylamide]: the IC50 is 4900 nM.

For the compound `CS(=O)(=O)Nc1ccc(CNC(=O)/C=C/c2ccc(C(F)(F)F)nc2Nc2ccccc2)cc1F` [Example 127, N-(3-Fluoro-4-methanesulfonylamino-benzyl)-3-(2-phenylamino-6-trifluoromethyl-pyridin-3-yl)-acrylamide], the 50% inhibitory concentration (IC50) is 320 nM.

Consider `CS(=O)(=O)Nc1c(F)cc(CNC(=O)/C=C/c2ccc(C(F)(F)F)nc2Nc2ccccc2)cc1C#N` [Example 128, N-(3-Cyano-5-fluoro-4-methanesulfonylamino-benzyl)-3-(2-phenylamino-6-trifluoromethyl-pyridin-3-yl)-acrylamide], for which the IC50 amounted to 600 nM.

With `CCC(C)Nc1nc(C(F)(F)F)ccc1/C=C/C(=O)NCc1cc(F)c(NS(C)(=O)=O)c(F)c1` (stereo not shown) [Example 129, 3-(2-sec-Butylamino-6-trifluoromethyl-pyridin-3-yl)-N-(3,5-difluoro-4-methanesulfonylamino-benzyl)-acrylamide], the IC50 came to 47 nM.

Take `CCC(C)Nc1nc(C(F)(F)F)ccc1/C=C/C(=O)NCc1cc(C)c(NS(C)(=O)=O)c(F)c1` (stereo not shown) [Example 130, 3-(2-sec-Butylamino-6-trifluoromethyl-pyridin-3-yl)-N-(3-fluoro-4-methanesulfonylamino-5-methyl-benzyl)-acrylamide]: the IC50 stood at 54 nM.

In the case of `CS(=O)(=O)Nc1ccc(CNC(=O)/C=C/c2ccc(C(F)(F)F)nc2Oc2ccccc2)cc1F` [Example 132, N-(3-Fluoro-4-methanesulfonylamino-benzyl)-3-(2-phenoxy-6-trifluoromethyl-pyridin-3-yl)-acrylamide], the IC50 was above 3000 nM.

With `C=Cc1cc(CNC(=O)/C=C/c2ccc(C(F)(F)F)nc2Oc2ccccc2)cc(F)c1NS(C)(=O)=O` [Example 133, N-(3-Fluoro-4-methanesulfonylamino-5-vinyl-benzyl)-3-(2-phenoxy-6-trifluoromethyl-pyridin-3-yl)-acrylamide], the IC50 turned out to be 280 nM.

As to `C#Cc1cc(CNC(=O)/C=C/c2ccc(C(F)(F)F)nc2Oc2cccnc2)cc(F)c1NS(C)(=O)=O` [Example 134, N-(3-Ethynyl-5-fluoro-4-methanesulfonylamino-benzyl)-3-[2-(pyridin-3-yloxy)-6-trifluoromethyl-pyridin-3-yl]-acrylamide], the IC50 came out at 2600 nM.

For `C#Cc1cc(CNC(=O)/C=C/c2ccc(C(F)(F)F)nc2-c2ccc(F)nc2)cc(F)c1NS(C)(=O)=O` [Example 135], the IC50 is 2300 nM.

Turning to `CS(=O)(=O)Nc1c(F)cc(CNC(=O)/C=C/c2ccc(C(F)(F)F)nc2-c2cccc(F)c2)cc1C#N` [Example 136, N-(3-Cyano-5-fluoro-4-methanesulfonylamino-benzyl)-3-[2-(3-fluoro-phenyl)-6-trifluoromethyl-pyridin-3-yl]-acrylamide], the half-maximal inhibitory concentration (IC50) stood at 900 nM.

Regarding `C#Cc1cc(CNC(=O)/C=C/c2ccc(C(F)(F)F)nc2Sc2ccccc2)cc(F)c1NS(C)(=O)=O` [Example 139, N-(3-Ethynyl-5-fluoro-4-methanesulfonylamino-benzyl)-3-(2-phenylthio-6-trifluoromethyl-pyridin-3-yl)-acrylamide], the half-inhibitory concentration (IC50) stood at 340 nM.

Regarding `CS(=O)(=O)Nc1ccc(CNC(=O)/C=C/c2ccc(C(F)(F)F)nc2Sc2ccccc2)cc1F` [Example 140, N-(3-fluoro-4-methanesulfonylamino-benzyl)-3-(2-phenylthio-6-trifluoromethyl-pyridin-3-yl)-acrylamide], the IC50 came out at 9700 nM.

As to `CS(=O)(=O)Nc1ccc(CNC(=O)/C=C/c2ccc(C(F)(F)F)nc2CCc2ccccc2)cc1F` [Example 141, N-(3-Fluoro-4-methanesulfonylamino-benzyl)-3-(2-phenethyl-6-trifluoromethyl-pyridin-3-yl)-acrylamide], the IC50 was 180 nM.

As for `C#Cc1cc(CNC(=O)/C=C/c2ccc(C(F)(F)F)nc2CCc2ccccc2)cc(F)c1NS(C)(=O)=O` [Example 142, N-(3-Ethynyl-5-fluoro-4-methanesulfonylamino-benzyl)-3-(2-phenethyl-6-trifluoromethyl-pyridin-3-yl)-acrylamide], the IC50 is 35 nM.

For `CCCCc1nc(C(F)(F)F)ccc1/C=C/C(=O)NCc1ccc(NS(C)(=O)=O)c(F)c1` [Example 143, 3-(2-Butyl-6-trifluoromethyl-pyridin-3-yl)-N-(3-fluoro-4-methanesulfonylamino-benzyl)-acrylamide], the half-maximal inhibitory concentration (IC50) came to 200 nM.

Take `C#Cc1cc(CNC(=O)/C=C/c2ccc(C(F)(F)F)nc2CCCC)cc(F)c1NS(C)(=O)=O` [Example 144, 3-(2-Butyl-6-trifluoromethyl-pyridin-3-yl)-N-(3-ethynyl-5-fluoro-4-methanesulfonylamino-benzyl)-acrylamide]: the half-maximal inhibitory concentration (IC50) is 33 nM.

In the case of `C#Cc1cc(CNC(=O)C=Cc2ccc(C(F)(F)F)nc2C#C)cc(F)c1NS(C)(=O)=O` [Example 145, N-(3-Ethynyl-5-fluoro-4-methanesulfonylamino-benzyl)-3-(2-ethynyl-6-trifluoromethyl-pyridin-3-yl)-acrylamide], the IC50 stood at 1900 nM.

Take `CC(C)Cc1nc(C(F)(F)F)ccc1/C=C/C(=O)NCc1ccc(NS(C)(=O)=O)c(F)c1` [Example 147, N-(3-Fluoro-4-methanesulfonylamino-benzyl)-3-(2-isobutyl-6-trifluoromethyl-pyridin-3-yl)-acrylamide]: the half-inhibitory concentration (IC50) was 220 nM.

With `C#Cc1cc(CNC(=O)/C=C/c2ccc(C(F)(F)F)nc2CC(C)C)cc(F)c1NS(C)(=O)=O` [Example 148, N-(3-Ethynyl-5-fluoro-4-methanesulfonylamino-benzyl)-3-(2-isobutyl-6-trifluoromethyl-pyridin-3-yl)-acrylamide], the IC50 was determined as 51 nM.

Regarding `C[C@@H](NC(=O)/C=C/c1ccc(C(F)(F)F)nc1Nc1ccccc1)c1ccc(NS(C)(=O)=O)c(F)c1` [Example 149, (R)—N-[1-(3-Fluoro-4-methanesulfonylamino-phenyl)-ethyl]-3-(2-phenylamino-6-trifluoromethyl-pyridin-3-yl)-acrylamide], the IC50 stood at 250 nM.

Take `C#Cc1cc(CNC(=O)/C=C/c2ccc(C(F)(F)F)nc2CC)cc(F)c1NS(C)(=O)=O` [Example 150, 3-(2-Ethyl-6-trifluoromethyl-pyridin-3-yl)-N-(3-ethynyl-5-fluoro-4-methanesulfonylamino-benzyl)-acrylamide]: the IC50 turned out to be 210 nM.

Regarding `CCC(C)Cc1nc(C(F)(F)F)ccc1/C=C/C(=O)NCc1ccc(NS(C)(=O)=O)c(F)c1` (stereo not shown) [Example 151, N-(3-Fluoro-4-methanesulfonylamino-benzyl)-3-[2-(2-methyl-butyl)-6-trifluoromethyl-pyridin-3-yl]-acrylamide], the IC50 turned out to be 150 nM.

As for `C#Cc1cc(CNC(=O)/C=C/c2ccc(C(F)(F)F)nc2CC(C)CC)cc(F)c1NS(C)(=O)=O` (stereo not shown) [Example 152, N-(3-Ethynyl-5-fluoro-4-methanesulfonylamino-benzyl)-3-[2-(2-methyl-butyl)-6-trifluoromethyl-pyridin-3-yl]-acrylamide], the IC50 was 43 nM.

With `C#Cc1cc(CNC(=O)/C=C/c2ccc(C(F)(F)F)nc2C#CCOC)cc(F)c1NS(C)(=O)=O` [Example 153, N-(3-Ethynyl-5-fluoro-4-methanesulfonylamino-benzyl)-3-[2-(3-methoxy-prop-1-ynyl)-6-trifluoromethyl-pyridin-3-yl]-acrylamide], the IC50 stood at 1100 nM.

As for `COCC#Cc1nc(C(F)(F)F)ccc1/C=C/C(=O)NCc1ccc(NS(C)(=O)=O)c(F)c1` [Example 154, N-(3-Fluoro-4-methanesulfonylamino-benzyl)-3-[2-(3-methoxy-prop-1-ynyl)-6-trifluoromethyl-pyridin-3-yl]-acrylamide], the IC50 amounted to 2100 nM.

Turning to `C#Cc1cc(CNC(=O)/C=C/c2ccc(C(F)(F)F)nc2CCCOC)cc(F)c1NS(C)(=O)=O` [Example 155, N-(3-Ethynyl-5-fluoro-4-methanesulfonylamino-benzyl)-3-[2-(3-methoxy-propyl)-6-trifluoromethyl-pyridin-3-yl]-acrylamide], the IC50 was 780 nM.

On to `COCCCc1nc(C(F)(F)F)ccc1/C=C/C(=O)NCc1ccc(NS(C)(=O)=O)c(F)c1` [Example 156, N-(3-Fluoro-4-methanesulfonylamino-benzyl)-3-[2-(3-methoxy-propyl)-6-trifluoromethyl-pyridin-3-yl]-acrylamide], for which the IC50 was 2200 nM.

With `C#Cc1cc(CNC(=O)/C=C/c2ccc(C(F)(F)F)nc2/C=C/c2ccccc2)cc(F)c1NS(C)(=O)=O` [Example 157, N-(3-Ethynyl-5-fluoro-4-methanesulfonylamino-benzyl)-3-(2-styryl-6-trifluoromethyl-pyridin-3-yl)-acrylamide], the IC50 was 450 nM.
